# Test results from patent publication US4772704A, “2,5-disubstituted-4(3H)-pyrimidones having histamine H2 -receptor antagonist activity” (Bristol-Myers Company, priority 1983, dated 1988).
# Experiments:
# [1] = cited from earlier work
# histamine H2-receptor [2] = conditions: relative to burimamide or metiamide; cited from earlier work
# [3] = test system: histamine-stimulated gastric acid output; assay: Gastric Antisecretory Activity In The Heidenhain Pouch Dog; format: in vivo, female dogs
# Description: Determination of Gastric Antisecretory Activity In The Heidenhain Pouch Dog
# Prior to surgery, hematology and blood chemistry profiles are obtained and an assessment made as to the general health of selected female dogs. Dogs are vaccinated with Tissue Vax 5 (DHLP--Pitman-Moore) and housed in general animal quarters for four weeks' observation so incipient diseases may become apparent. Dogs are fasted with water ad libitum 24 hours prior to surgery.
# Anesthesia is induced with Sodium Pentothal (Abbott) 25-30 mg/kg iv. Subsequent anesthesia is maintained with methoxyflurane (Pitman-Moore). A midline linea alba incision from xiphoid to umbilicus provides good exposure and ease of closure. The stomach is pulled up into the operative field, the greater curvature stretched out at multiple points and clamps placed along the selected line of incision. The pouch is made from the corpus of the stomach so that true parietal cell juice is obtained. About 30% of the corpus volume is resected. The cannula is made of light-weight,biologically-inert material such as nylon or Delrin with dimensions and attachments after DeVito and Harkins (J. Appl. Physiol., 14, 138 (1959). Post operatively, dogs are medicated with antibiotics and an analgesic. They are allowed 2-3 months for recovery. Experiments are carried out in the following way: Dogs are fasted overnight (≈18 hours) with water ad libitum prior to each experiment. The dogs are placed in a sling and a saphenous vein cannulated for drug administration. Histamine as the base (100 μg/kg/hr) and chlorpheniramine maleate (0.25 mg/kg/hr) are infused continuously (in a volume of 6 ml/hr) with a Harvard infusion pump.
# Ninety minutes' infusion are allowed for the dogs to reach a steady state of acid output. At this time the drug or normal saline (control) is administered concomitantly with the secretagogue in a volume of 0.5 ml/kg over a 30 second period. When oral studies are to be carried out, the drug is administered via gastric gavage in a volume of 5 ml/kg. Infusion of the secretagogue is continued and 15 minute samples of the gastric juice are taken for 4.5 hours. Each sample is measured to the nearest 0.5 ml and titratable acidity is determined by titrating a 1 ml sample to pH 7.0 with 0.2N NaOH, using an Autoburet and an electrometric pH meter (Radiometer). Titratable acid output is calculated in microequivalents by multiplying the volume in milliliters by the acid concentration in milliequivalents per liter.
# Results are expressed as percent inhibition relative to control readings and the response is the average for five dogs at that dose level.
# gastric acid secretion = assay: Gastric Antisecretory Activity in the Gastric Fistula Rat; format: in vivo, Male Long Evans rats; conditions: sc
# Description: Determination of Gastric Antisecretory Activity in the Gastric Fistula Rat Male Long Evans rats weighing about 240-260 grams at the time of cannula implantation are used. […] The fistula components are designed and the operative procedure is carried out exactly as described in the above reference. Post operatively the animals are individually housed in solid bottom cages with sawdust and are allowed food and water ad libitum throughout the entire recovery period. Animals are not used for test purposes for at least 15 days after the operative procedure. The animals are fasted but allowed water ad libitum for 20 hours before the testing procedure is to begin. […] The catheter is then screwed into the cannula in place of the plugging screw and the rat is placed in a clear plastic rectangular cage measuring 40 cm long, 15 cm wide and 13 cm high. The bottom of the cage has a slit approximately 1.5 cm wide and 25 cm long running down the center to accommodate the catheter which hangs through it. […] Chem. Path. […] Titratable acid output is calculated in microequivalents by multiplying the volume in milliliters by the acid concentration in milliequivalents per liter. Results are expressed as percent inhibition relative to control readings. Dose response curves are constructed and ED50 values are calculated by regression analyses. […]
# histamine H2-receptor [4] = conditions: man; cited from earlier work
smiles,measurement,setting,value
CNC(=S)NCCCCc1cnc[nH]1 [Burimamide],oral absorption,[1],poor
"CNC(=NC#N)NCCSCc1nc[nH]c1C [Cimetidine, reference compound]","potency or effectiveness as histamine H2-antagonist, relative",histamine H2-receptor [2],as effective an histamine H2 -antagonist as metiamide
same,% Maximum Inhibition,"[3]; Intravenous, dose 6.0 μmoles/kg, Heidenhain pouch dog",94%
same,% Maximum Inhibition,"[3]; Oral, dose 12.0 μmoles/kg, Heidenhain pouch dog",95%
"Nc1cnc(NCCCOc2cccc(CN3CCCCC3)c2)[nH]c1=O [Example 2, 5-Amino-2-[3-(3-piperidinomethylphenoxy)propylamino]-4(3H)-pyrimidone]",ED50,gastric acid secretion,0.15 µmol/kg
same,Potency Ratio [cimetidine = 1.0],gastric acid secretion; cimetidine = 1.0,26
same,% Maximum Inhibition,"[3]; Intravenous, single dose 0.094 μmoles/kg, 5 dogs",90%
same,Potency Ratio [cimetidine = 1.0],[3]; Intravenous,50
same,% Maximum Inhibition,"[3]; Oral, single dose 0.5 μmoles/kg, 5 dogs",86%
same,Potency Ratio [cimetidine = 1.0],[3]; Oral,20
same,duration of antisecretory action relative to cimetidine,[3]; both the intravenous and oral dog models,prolonged duration of action relative to cimetidine
CNC(=S)NCCSCc1nc[nH]c1C [Metiamide],"potency or effectiveness as histamine H2-antagonist, relative",histamine H2-receptor [2],more potent than burimamide
same,oral activity,histamine H2-receptor [4],orally active in man
